Assay results published in ChEMBL document CHEMBL5728816, “Thienopyridine inhibitors of RIPK2” (2021).

Target: Receptor-interacting serine/threonine-protein kinase 2 (Homo sapiens, UniProt O43353)
Assay: TR-FRET Assay: All data was collected using a standard TR-FRET screening assay: LanthaScreen Tracer 199 at 50 nM, Eu-anti-His Antibody at 2 nM, 5 nM RIPK2 enzyme, and 1× Kinase Reaction Buffer. There was a 1 hour incubation prior to read. TR-FRET signal of the interaction (340Ex/665Em/615Em) was read at room temperature with standard setting. Background was subtracted of wells containing no enzyme. Percent inhibition was based on uninhibited controls log (inhibitor) vs. response. Variable slope equation was used with no constraints: Log Y=Bottom+(Top−Bottom)/(1+10^((Log IC50−X)*Hill Slope)).Analytical Instrumentation:NMR: Bruker UltraShield™-300 or Bruker Ascend™-400 spectrometers.LCMS: Shimadzu LCMS-2020 or Agilent technologies 1260 Infinity-6120 Quadrupole LC/MS.Purification:TLC plates: Thin-layer chromatography with E. Merck silica gel 60 F254 pre-coated plates (0.25 mm).Flash chromatography: Agela Technologies CHEETAH-MP200 CH16200 2T-A0099 or Biotage Isolera ISO-PSV ISPS 1832112.

Chain of Receptor-interacting serine/threonine-protein kinase 2 (O43353 whole entry): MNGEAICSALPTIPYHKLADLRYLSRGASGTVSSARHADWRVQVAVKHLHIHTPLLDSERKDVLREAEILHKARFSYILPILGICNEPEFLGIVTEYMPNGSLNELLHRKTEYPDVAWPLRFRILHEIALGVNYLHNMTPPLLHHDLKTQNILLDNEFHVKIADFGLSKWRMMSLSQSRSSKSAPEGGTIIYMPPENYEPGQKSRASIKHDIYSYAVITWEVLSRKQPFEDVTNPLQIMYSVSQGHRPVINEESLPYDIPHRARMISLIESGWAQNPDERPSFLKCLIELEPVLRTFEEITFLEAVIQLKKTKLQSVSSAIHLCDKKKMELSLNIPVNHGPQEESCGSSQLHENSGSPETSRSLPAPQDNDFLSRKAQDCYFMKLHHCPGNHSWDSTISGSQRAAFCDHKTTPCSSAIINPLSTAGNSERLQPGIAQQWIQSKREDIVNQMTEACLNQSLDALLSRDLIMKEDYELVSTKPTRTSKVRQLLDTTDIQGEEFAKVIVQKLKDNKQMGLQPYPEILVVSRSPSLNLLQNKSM

Q: Which IC50 does the source give for `C[C@@H]1[C@H](c2cc3c(Nc4ccc5scnc5c4F)ccnc3s2)CCCN1C` here?
A: < 10 nM
